The results in this text go back to publication PMC5054364, “Neuroprotective pentapeptide CN-105 improves functional and histological outcomes in a murine model of intracerebral hemorrhage” (Scientific Reports, 2016).

What all share (assay type): in vivo, C57BL/6J mice
For test [1], the system named is murine model of collagenase-induced ICH. Description: Brain water content (cerebral edema) after ICH. To be noted: 24 hours after injury, 0.05 mg/kg i.v. at 2, 6 and 24 hours post ICH, mean ± standard error, n = 6–8/group. The procedure: Experiment 3. Brain water content. Brain water content was assessed at 24 hours post ICH in 8 saline- and 8 CN-105-treated animals. CN-105 or saline was given by tail vein injection at 2, 6, and 24 hours post ICH. Two animals randomized to CN-105 died at 4 and 6 hours post-ICH, and were excluded from further analyses.
(§1) Intrastriatal collagenase injection was used to induce ICH in mice, as previously described. Briefly, the trachea was intubated after anesthesia induction with 4.6% isoflurane, and the lungs were mechanically ventilated with 1.5% isoflurane in a mixture of 30%/70% O2/N2. Rectal temperature was maintained at 37 °C ± 0.2 °C by circulating warm water in an underbody waterbed. The animal’s head was secured in a stereotactic frame, and a midline scalp incision was made. After exposing the skull, a burr hole was created 2.2 mm left lateral to bregma, and a 0.5 μL syringe needle (Hamilton, Reno, NV, USA) was advanced to a depth of 3 mm from cortex. Type IV-S Clostridial collagenase (Sigma, St. Louis, MO, USA) was injected over 2 minutes (0.075 U in 0.4 μL normal saline). […]
Mice were anesthetized and euthanized at 24 hours after ICH to coincide with the point of maximum inflammatory changes. […] Cerebral edema was expressed as water content, calculated as a percentage of wet weight ([wet weight - dry weight]/[wet weight] x 100).

For test [2] the test system is unchanged. The test can be described thus: Morris water maze testing after ICH. To be noted: Days 29–32 after ICH, 0.05 mg/kg i.v. at 4, 8 and 24 hours post ICH, n = 14/group. The procedure: Experiment 4. Neurobehavioral assessment. Animals were randomized to vehicle (n = 14) or CN-105 (n = 14) groups, and evaluated for neurobehavioral function (neuroscore), vestibulomotor function (rotarod), and spatial learning (MWM). Mice received tail vein injections of vehicle or CN105 at 4, 8, and 24 hours post ICH.
as §1
The MWM[20] was used to assess the effects of therapeutic intervention on spatial learning and memory. […] Latency to find the platform was recorded by a computerized video tracking system (KeilSoft LLC, Chapel Hill, NC).

The test system is the same in test [3]. The test can be described thus: F4/80 microglial staining and stereology after ICH. To be noted: 5 days after ICH; 0.05 mg/kg i.v. at 4, 8 and 24 hours post ICH; vehicle 14593 ± 116, p = 0.003; mean ± standard error, n = 3–4. The protocol: Experiment 5. Microglial staining. A separate cohort of animals was randomized to vehicle (n = 4) or CN-105 (n = 4) groups and received tail vein injections at 4, 8, and 24 hours post ICH. Immunohistochemical microglial staining was performed and gliosis was quantified by stereology. One mice in vehicle group died within 1 day after injury and was excluded.
as §1
(§2) After anesthetic induction, mice underwent transcardial perfusion with 30 mL normal saline. […] Cells were counted using a Nikon 218912 light microscope interfaced with the StereoInvestigator software package (MicroBrightField, Williston, VT, USA). […]

For test [4] the test system is unchanged. Description: NeuN neuronal survival, stereology after ICH. To be noted: ipsilateral, 33 days post ICH, 0.05 mg/kg i.v. at 4, 8 and 24 hours, n = 7/group.
From the text: Experiment 6. Neuronal survival. The hippocampus has been associated with spatial learning and memory. To determine whether histological outcome correlates with functional outcomes, neuronal density was quantified in the hippocampus and striatum of the mice (n = 7/group) in experiment 4 by stereology at 33 days post-ICH following MWM testing.
Intrastriatal collagenase injection was used to induce ICH in mice, as previously described. Briefly, the trachea was intubated after anesthesia induction with 4.6% isoflurane, and the lungs were mechanically ventilated with 1.5% isoflurane in a mixture of 30%/70% O2/N2. Rectal temperature was maintained at 37 °C ± 0.2 °C by circulating warm water in an underbody waterbed. The animal’s head was secured in a stereotactic frame, and a midline scalp incision was made. After exposing the skull, a burr hole was created 2.2 mm left lateral to bregma, and a 0.5 μL syringe needle (Hamilton, Reno, NV, USA) was advanced to a depth of 3 mm from cortex. Type IV-S Clostridial collagenase (Sigma, St. Louis, MO, USA) was injected over 2 minutes (0.075 U in 0.4 μL normal saline). After closing the incision, animals were allowed to recover spontaneous ventilation, and were then extubated and given free access to food and water.
CN-105 (Ac-VSRRR-amide) was synthesized by Polypeptide Inc. (San Diego, CA) to a purity of >99%, and was dissolved in normal saline. Using a murine model of traumatic brain injury, 0.05 mg/kg CN-105 was previously found to be the lowest dose that improved functional performance after injury (data not shown). Here, therefore, 100 μL 0.05 mg/kg CN-105 in saline, or vehicle, was administered via intravenous tail vein injection 3 times at pre-specified timepoints after ICH. Animals were gently restrained by a rodent restrainer (Harvard Apparatus, Holliston, MA) during each administration.
as §2

Consider Ac-VSRRR-NH2 [CN-105, Ac-VSRRR-amide], for which, in test [1] (p = 0.64), the “brain water content, contralateral hemisphere” value is listed as 78.70 ± 0.41%. The “brain water content, injured hemisphere” value in test [1] (vehicle 80.67 ± 0.26, p = 0.029) stood at 79.57 ± 0.38%. Further, the “Morris water maze escape latencies versus vehicle” value in test [2] (Day x Group p = 0.02) is reported as “significantly lower latencies”. In addition, the “Morris water maze learning curves (learning slopes) versus vehicle” value in test [2] (p = 0.01) is recorded as “significantly steeper learning curves”. The “number of F4/80-positive cells in the ipsilateral hippocampi” value in test [3] was determined as 9327 ± 838 cells/mm^3. In test [4] (vehicle 25142 ± 5777, p = 0.27), the “NeuN-positive cell numbers, striatum” value is on record as 21816 ± 5073 cells/mm^3. The “NeuN-positive cell numbers, dentate gyrus polymorphic region” value in test [4] (vehicle 34919 ± 9378, p = 0.16) is 42109 ± 8439 cells/mm^3. In test [4] (vehicle 188719 ± 4780, p = 0.009), the “NeuN-positive cell numbers, CA3 region” value is reported as 225773 ± 10841 cells/mm^3.
